What all share (format): in vivo
In data set [1] the test system is field corn (variety: PIONEERDENT 30N34). The data set is described as follows: Test Example 5: above-ground height of field corn, agricultural field, 300 L/ha. Conditions: dose 30 g/ha; (c) polyoxyethylene hydrogenated castor oil 0.020 w/v %; 14th day. The procedure: In an agricultural field having seeds of field corn (variety: PIONEERDENT 30N34, variety highly susceptible to component (a)) sown, when the field corn reached 3.1 to 3.5 leaf stage, an oil-based suspension containing the component (a) and the component (c) (polyoxyethylene hydrogenated castor oil), and a wettable powder containing the component (b) were diluted with water in an amount corresponding to 300 L/ha to prepare spray solutions, which were applied to foliage with a Teejet 80015VS nozzle. The concentration of the component (c) in the spray solution was 0.020 weight/volume percent. On the 14th day after the foliar application, the above-ground height of the field corn was measured, and the height ratio was calculated in accordance with the following formula. The above-ground height in the untreated plot was 76.7 cm.
Height ratio (%) =(above-ground height in the treated plot)/(above-ground height in the untreated plot)×100

In data set [2] the test system is field corn (variety: SNOWDENT SH2933). The data set is described as follows: Test Example 7: above-ground height of field corn, agricultural field, 200 L/ha. Conditions: 27th day. The procedure: On the 27th day after the foliar application, the above-ground height of the field corn was measured, and the height ratio was calculated in accordance with the following formula.
(§1) Height ratio (%)=(above-ground height in the treated plot)/(above-ground height in the untreated plot)×100

Data set [3] deals with field corn (variety: PIONEERDENT 30N34). The experiment in a line: Test Example 4: above-ground height of field corn, pot, 300 L/ha. Conditions: dose 120 g/ha; (c) polyoxyethylene hydrogenated castor oil 0.08 w/v %; 14th day. How it is done: Upland field soil was put into a […] hectare pot, and seeds of field corn (variety: PIONEERDENT 30N34, variety highly susceptible to component (a)) were sown. When the field corn reached 3.5 to 4.0 leaf stage, an oil-based suspension containing the component (a) and the component (c) (polyoxyethylene hydrogenated castor oil), and a wettable powder containing the component (b) were diluted with water in an amount corresponding to 300 L/ha to prepare spray solutions. The concentration of the component (c) in the spray solution was 0.08 weight/volume percent. The spray solutions were applied to foliage with a small sprayer. On the 14th day after the foliar application, the above-ground height of the field corn was measured, and the height ratio was calculated in accordance with the following formula. The above-ground height in the untreated plot was 75.8 cm.
as §1

The test system of data set [4] is field corn (variety: SNOWDENT SH2933). The data set is described as follows: Test Example 6: above-ground height of field corn, pot, 300 L/ha. The following applies: dose 30 g/ha; (c) sodium polyoxyethylene alkyl ether phosphate 0.033 w/v %; 14th day. How it is done: On the 14th day after the foliar application, the above-ground height of the field corn was measured, and the height ratio was calculated in accordance with the following formula.
Height ratio (%)=(above-ground height in the treated plot)/(above-ground height in the untreated plot) ×100

The test system is the same in data set [5]. The data set is described as follows: Test Example 8: above-ground height of field corn, agricultural field, 500 L/ha. The following applies: 28th day. The procedure: On the 28th day after the foliar application , the above-ground height of the field corn was measured, and the height ratio was calculated in accordance with the following formula.
as §1

Setting [6] is: dose 20 g/ha, (c) polyoxyethylene hydrogenated castor oil 0.02 w/v %.
The mark [7] stands for this setting: dose 30 g/ha, (c) polyoxyethylene hydrogenated castor oil 0.03 w/v %.
Setting [8] is: dose 40 g/ha, (c) polyoxyethylene hydrogenated castor oil 0.04 w/v %.
Where [9] appears, read: dose 60 g/ha, (c) polyoxyethylene hydrogenated castor oil 0.06 w/v %.
The mark [10] stands for this setting: dose 80 g/ha, (c) polyoxyethylene hydrogenated castor oil 0.08 w/v %.
The mark [11] stands for this setting: dose 120 g/ha, (c) polyoxyethylene hydrogenated castor oil 0.12 w/v %.
The mark [12] stands for this setting: dose 60 g/ha, (c) sodium polyoxyethylene alkyl ether phosphate 0.04 w/v %.
[13] abbreviates: dose 90 g/ha, (c) sodium polyoxyethylene alkyl ether phosphate 0.06 w/v %.
Setting [14] is: dose 120 g/ha, (c) sodium polyoxyethylene alkyl ether phosphate 0.08 w/v %.

For `COc1cc(OC)nc(NC(=O)NS(=O)(=O)c2ncccc2C(=O)N(C)C)n1` [Component (a), nicosulfuron], the Above-ground height in data set [1] is listed as 66.6 cm; in data set [2] (setting [6]) it was 125.5 cm; in data set [2] (setting [7]), 124.0 cm; in data set [2] (setting [8]) it was 129.9 cm; in data set [2] (setting [9]), 122.3 cm; in data set [2] (setting [10]) it was 110.7 cm. Further, the Above-ground height in data set [2] (setting [11]) is on record as 107.4 cm; in data set [3] it was 41.3 cm; in data set [4], 46.8 cm; in data set [5] (setting [12]), 107.2 cm; in data set [5] (setting [13]) it was 88.6 cm; in data set [5] (setting [14]) it was 86.3 cm. Besides, the Height ratio in data set [1] was 87%; in data set [2] (setting [6]), 86%; in data set [2] (setting [7]), 84%; in data set [2] (setting [8]), 88%; in data set [2] (setting [9]) it was 83%; in data set [2] (setting [10]), 75%. In addition, the Height ratio in data set [2] (setting [11]) was 73%; in data set [3], 55%; in data set [4], 75%; in data set [5] (setting [12]) it was 81%; in data set [5] (setting [13]), 67%; in data set [5] (setting [14]), 65%.

The values above are taken from patent US20230028403A1, “METHOD WHICH BRINGS BENEFITS TO HEALTH AND/OR GROWTH OF USEFUL PLANTS” (ISHIHARA SANGYO KAISHA, LTD., priority 2019, published 2023).
